Broadly, the IC50 is the concentration at which inhibition is half-maximal.

This is an account of results in US10703756B2, “Pyrrolo[2,3-D]pyrimidinyl, pyrrolo[2,3-B]pyrazinyl, pyrrolo[2,3-B]pyridinyl acrylamides and epoxides thereof” (Pfizer Inc., priority 2015, dated 2020).

Data set [1] deals with IL-15 induced STAT5 phosphorylation in human whole blood lymphocytes. Kind of data set: HWB IL-15 Induced STAT5 Phosphorylation Assay. In kind it is cell-based. The note with it: Lymphocyte, IL-15 final 50 ng/ml, read-out: HWB_IL15 pSTAT5 IC50. A digest of the protocol: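 Heparinised human whole blood preincubated with compound (0.2% DMSO final) 45 min at 37° C, then stimulated with human IL-15 (50 ng/ml final) for 15 min. After lyse/fix and Perm Buffer III permeabilisation, stained overnight at 4° C with AlexaFluor647 anti-phospho-STAT5; read by flow cytometry gated on total lymphocytes.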

In another data set the target is T1, JAK3 enzyme (Homo sapiens, UniProt P52333).
T1 sequence (P52333 1-1124): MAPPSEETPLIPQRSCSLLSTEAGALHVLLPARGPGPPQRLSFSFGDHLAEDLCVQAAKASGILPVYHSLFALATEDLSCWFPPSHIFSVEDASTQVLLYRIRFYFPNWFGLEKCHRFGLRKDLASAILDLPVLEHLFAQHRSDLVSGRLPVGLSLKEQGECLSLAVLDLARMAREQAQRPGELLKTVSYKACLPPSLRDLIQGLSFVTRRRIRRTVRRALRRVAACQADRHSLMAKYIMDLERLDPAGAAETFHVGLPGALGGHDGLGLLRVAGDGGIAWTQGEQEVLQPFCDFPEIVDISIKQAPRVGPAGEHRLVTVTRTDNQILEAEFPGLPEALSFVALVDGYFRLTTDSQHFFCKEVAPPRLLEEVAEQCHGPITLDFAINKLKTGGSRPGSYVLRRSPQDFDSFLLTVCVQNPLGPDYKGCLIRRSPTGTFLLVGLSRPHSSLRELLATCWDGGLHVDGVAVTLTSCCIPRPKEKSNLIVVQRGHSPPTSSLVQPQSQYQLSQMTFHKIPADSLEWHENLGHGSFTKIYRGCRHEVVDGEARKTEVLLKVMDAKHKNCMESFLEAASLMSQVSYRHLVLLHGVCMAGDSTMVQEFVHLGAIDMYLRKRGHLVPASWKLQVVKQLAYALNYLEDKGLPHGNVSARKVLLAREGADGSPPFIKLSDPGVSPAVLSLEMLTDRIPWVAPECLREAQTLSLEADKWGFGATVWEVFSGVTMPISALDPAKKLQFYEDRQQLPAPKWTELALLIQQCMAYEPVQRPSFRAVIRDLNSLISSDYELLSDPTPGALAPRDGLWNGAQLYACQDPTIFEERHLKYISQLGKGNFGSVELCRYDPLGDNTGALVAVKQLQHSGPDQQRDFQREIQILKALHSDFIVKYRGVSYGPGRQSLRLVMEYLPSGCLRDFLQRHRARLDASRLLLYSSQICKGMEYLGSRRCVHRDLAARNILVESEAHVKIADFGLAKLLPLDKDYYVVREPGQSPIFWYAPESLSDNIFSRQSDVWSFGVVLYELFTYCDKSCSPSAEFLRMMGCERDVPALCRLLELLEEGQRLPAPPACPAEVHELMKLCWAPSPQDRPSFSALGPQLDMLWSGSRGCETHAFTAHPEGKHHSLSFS
The experiment in a line: JAK Caliper Enzyme Assay at 1 mM ATP. In kind it is biochemical. An outline of the steps: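 11-pt ½-log cpd titration in DMSO (top 600 μM, pre-assay); enzyme conc/incubation adjusted per prep → 20-30% peptide phosphorylation; phospho vs non-phospho peptide read by chip-based electrophoretic separation.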

A short description of data set [2]: Stability of JAK3 Covalent Inhibitors in Human Whole Blood. In kind it is in vitro ADME. The conditions noted are these: both sexes, 1 μM test compound, 37° C., 180 min incubation, read-out: Human blood stability t1/2. A digest of the protocol: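 Compound at 1 μM final incubated in duplicate at 37° C for 180 min in fresh K2-EDTA whole blood […]. Samples quenched in acetonitrile with internal standard; LC-MS/MS peak area ratios gave % parent remaining over time.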

With `C=CC(=O)N1CC(CF)CC(Nc2ncnc3[nH]ccc23)C1` (mixture of isomers) [Example 102, Cis-racemic-1-[3-(fluoromethyl-5-(7H-pyrrolo[2,3-d]pyrimidin-4-ylamino)piperidin-1-yl]prop-2-en-1-one], the IC50 in data set [1] was determined as 1530 nM; against JAK3 enzyme, 142 nM. Also, the half-life at 1 μM in data set [2] was 2.02 h.

In the case of `C=CC(=O)N1CC[C@@H](Nc2cnc3[nH]cc(C(=O)NCC)c3n2)[C@@H](C)C1` (racemic) [Example 37, Cis-racemic-2-{[(3S,4R)-1-acryloyl-3-methylpiperidin-4-yl]amino}-N-ethyl-5H-pyrrolo[2,3-b]pyrazine-7-carboxamide], the IC50 is 1940 nM in data set [1] and 51 nM at JAK3 enzyme. The half-life at 1 μM in data set [2] came to 5.08 h.

`C=CC(=O)N1CC[C@H](Nc2cnc3[nH]cc(C(=O)NCC)c3n2)C[C@H]1C` (racemic) [Example 40, Trans-racemic-2-{[(2R,4S)-1-acryloyl-2-methylpiperidin-4-yl]amino}-N-ethyl-5H-pyrrolo[2,3-b]pyrazine-7-carboxamide]: the IC50 was 842 nM in data set [1] and 24 nM at JAK3 enzyme. The half-life at 1 μM in data set [2] turned out to be 4.05 h.

For the compound `C=CC(=O)N1CC[C@@H](Oc2cnc3[nH]cc(C(=O)N[C@@H](C)COC)c3n2)C[C@@H]1C` (racemic) [Example 71, Trans-racemic-2-{[1-acryloyl-2-methylpiperidin-4-yl]oxy}-N-[(2S)-1-methoxypropan-2-yl]-5H-pyrrolo[2,3-b]pyrazine-7-carboxamide], the IC50 in data set [1] came out at 931 nM; against JAK3 enzyme it was 54 nM. In data set [2], the half-life at 1 μM was 5.15 h.

Regarding `C=CC(=O)N1CC[C@@H](Oc2cnc3[nH]cc(C(=O)NCC)c3n2)C[C@@H]1C` (racemic) [Example 77, Trans-racemic-2-{[1-acryloyl-2-methylpiperidin-4-yl]oxy}-N-ethyl-5H-pyrrolo[2,3-b]pyrazine-7-carboxamide], the IC50 was 2450 nM in data set [1] and 115 nM against JAK3 enzyme. Further, in data set [2], the half-life at 1 μM is greater than 5.34 h.

As for `C=CC(=O)N1C[C@H](Nc2ncnc3[nH]ccc23)CC[C@@H]1CNC(C)=O` (racemic) [Example 88, rac-N-(((2R,5R)-5-((7H-pyrrolo[2,3-d]pyrimidin-4-yl)amino)-1-acryloylpiperidin-2-yl)methyl)acetamide], the IC50 in data set [1] came out at 5050 nM; against JAK3 enzyme it was 137 nM. For the same compound, in data set [2], the half-life at 1 μM is greater than 6 h.

For `C=CC(=O)N1C[C@@H](CC#N)C[C@@H](Nc2ncnc3[nH]ccc23)C1` (racemic) [Example 105, Cis-racemic-[1-acryloyl-5-(7H-pyrrolo[2,3-d]pyrimidin-4-ylamino)piperidin-3-yl]acetonitrile], the IC50 came to 1070 nM in data set [1] and 54 nM against JAK3 enzyme. For the same compound, in data set [2], the half-life at 1 μM is 2.3 h.

Consider `C=CC(=O)N1CCC(Oc2cnc3[nH]cc(C(=O)NC4CCCC4)c3n2)CC1` (racemic) [Example 204, Racemic-2-[(1-acryloylpiperidin-4-yl)oxy]-N-cyclopentyl-5H-pyrrolo[2,3-b]pyrazine-7-carboxamide], for which the 50% inhibitory concentration (IC50) in data set [1] is 1390 nM; at JAK3 enzyme it was 49 nM. In addition, the half-life at 1 μM in data set [2] is greater than 6 h.

As for `C=CC(=O)N1CCC(Oc2cnc3[nH]cc(C(=O)NC(C)C4CC4)c3n2)CC1` (racemic) [Example 220, Racemic-2-[(1-acryloylpiperidin-4-yl)oxy]-N-(1-cyclopropylethyl)-5H-pyrrolo[2,3-b]pyrazine-7-carboxamide], the IC50 in data set [1] was 1070 nM; against JAK3 enzyme it was 18 nM. Further, the half-life at 1 μM in data set [2] was found to be 3.7 h.

On to `C=CC(=O)N1CC[C@H](Nc2cnc3[nH]cc(C(=O)NCC(C)CC(F)(F)F)c3n2)[C@H](OC)C1` (mixture of isomers) [Example 328, Racemic-2-{[(3R,4S)-1-acryloyl-3-methoxypiperidin-4-yl]amino}-N-(4,4,4-trifluoro-2-methylbutyl)-5H-pyrrolo[2,3-b]pyrazine-7-carboxamide], for which the IC50 in data set [1] turned out to be 287 nM; at JAK3 enzyme, 37 nM. For the same compound, the half-life at 1 μM in data set [2] was determined as 4.2 h.

Take `C=CC(=O)N1CCC[C@H](Nc2cnc3[nH]cc(C(=O)NCC)c3n2)C1` (single isomer, unassigned) [Example 36]: the results for the IC50 (in data set [1]; on JAK3 enzyme) were 1090 nM and 54 nM, respectively. Moreover, in data set [2], the half-life at 1 μM is greater than 6 h.

`C=CC(=O)N1CC[C@@H](Nc2cnc3[nH]cc(C(=O)NCC)c3n2)[C@@H](C)C1` (single isomer, unassigned) [Example 38]: the IC50 in data set [1] amounted to 1160 nM; at JAK3 enzyme, 30 nM. Further, the half-life at 1 μM in data set [2] is 4.38 h.

Regarding `C=CC(=O)N1CC[C@H](Nc2cnc3[nH]cc(C(=O)NCC)c3n2)C[C@H]1C` (single isomer, unassigned) [Example 41], the IC50 in data set [1] was found to be 515 nM; against JAK3 enzyme, 22 nM. The half-life at 1 μM in data set [2] stood at 3.75 h.

With `C=CC(=O)N1CC[C@@H](Nc2cnc3[nH]cc(C(=O)NCC)c3n2)C[C@@H]1C` (single isomer, unassigned) [Example 42], the IC50 in data set [1] came out at 1060 nM; at JAK3 enzyme it was 50 nM. In addition, the half-life at 1 μM in data set [2] turned out to be 4.68 h.

`C=CC(=O)N1CC[C@@H](Nc2cnc3[nH]cc(C(=O)NCC)c3n2)[C@H](C)C1` (single isomer, unassigned) [Example 44]: the IC50 in data set [1] came out at 1230 nM; at JAK3 enzyme, 47 nM. Moreover, the half-life at 1 μM in data set [2] was found to be 4.27 h.

Regarding `C=CC(=O)N1CC[C@@H](Oc2cnc3[nH]cc(C(=O)NCC)c3n2)[C@H](C)C1` (single isomer, unassigned) [Example 47], the results for the IC50 (in data set [1]; at JAK3 enzyme) were 3580 nM and 87 nM, respectively. Besides, the half-life at 1 μM in data set [2] came to 1.8 h.

Consider `C=CC(=O)N1CC[C@@H](Oc2cnc3[nH]cc(C(=O)N[C@@H](C)COC)c3n2)C[C@@H]1C` (single isomer, unassigned) [Example 73], for which the 50% inhibitory concentration (IC50) in data set [1] was 738 nM; against JAK3 enzyme it was 33 nM. Besides, the half-life at 1 μM in data set [2] was greater than 6 h.

As to `C=CC(=O)N1CC[C@@H](Oc2cnc3[nH]cc(C(=O)NCC)c3n2)C[C@@H]1C` (single isomer, unassigned) [Example 79], the figures for the IC50 (in data set [1]; against JAK3 enzyme) were 2710 nM and 77 nM, respectively. The half-life at 1 μM in data set [2] amounted to 5.5 h.

Regarding `C=CC(=O)N1C[C@@H](CF)C[C@@H](Nc2ncnc3[nH]ccc23)C1` (single isomer, unassigned) [Example 103], the IC50 in data set [1] turned out to be 659 nM; against JAK3 enzyme, 38 nM. The half-life at 1 μM in data set [2] was determined as 2.28 h.

For the compound `C=CC(=O)N1C[C@@H](CC#N)C[C@@H](Nc2ncnc3[nH]ccc23)C1` (single isomer, unassigned) [Example 106], the half-maximal inhibitory concentration (IC50) is 287 nM in data set [1] and 25 nM against JAK3 enzyme. For the same compound, in data set [2], the half-life at 1 μM was 1.87 h.

With `C=CC(=O)N1CCC(N(C)c2cnc3[nH]cc(C(=O)NC(C)C)c3n2)CC1` [Example 64, 2-[(1-acryloylpiperidin-4-yl)(methyl)amino]-N-(propan-2-yl)-5H-pyrrolo[2,3-b]pyrazine-7-carboxamide], the IC50 in data set [1] worked out at 3130 nM; against JAK3 enzyme it was 50 nM. The half-life at 1 μM in data set [2] turned out to be 4.42 h.

As to `C=CC(=O)N(C)C1CN(c2cnc3[nH]cc(C(=O)N[C@H](C)COC)c3n2)C1` [Example 86, 2-{3-[acryloyl(methyl)amino]azetidin-1-yl}-N-[(2R)-1-methoxypropan-2-yl]-5H-pyrrolo[2,3-b]pyrazine-7-carboxamide], the figures for the concentration for half-maximal inhibition (IC50) (in data set [1]; at JAK3 enzyme) were 2920 nM and 94 nM, respectively. The half-life at 1 μM in data set [2] turned out to be 1.67 h.
